Earlier results, collected in US9779901B2, “High temperature material compositions for high temperature thermal cutoff devices” (Therm-O-Disc, Incorporated, priority 2008, dated 2017).

details: estimated melting point temperature ranges of candidate organic compounds (Table 2); some compounds have several values, partly in parentheses, because analytic techniques differ; cited from earlier work

Row | SMILES | Melting Point
1 | N#Cc1cc(C#N)cc(C#N)c1 [Example 157] | 261-263° ° C.
2 | O=C(Nc1ccccc1)C(=O)Nc1ccccc1 [Example 91] | 252-254° ° C.
3 | Cc1cc2cc3ccccc3cc2cc1C [Example 93] | 252° ° C.
4 | CC(=O)[C@H]1CC[C@H]2[C@@H]3CCc4cc(O)ccc4[C@H]3CC[C@]12C [Example 65] | 247-249° ° C.
5 | NC1=CC(=O)c2ncccc2C1=O [Example 131] | 258-260° ° C.
6 | COc1nc(C)nc(N)n1 [Example 135] | 259-261° ° C.
7 | C[C@]12CC[C@@H]3c4ccc(O)cc4C=C[C@H]3[C@@H]1CCC2=O [Example 186] | 264-265° ° C.
8 | O=C1C=CC=CC1=C1Nc2ccccc2N1 [Example 15] | 242° ° C.
9 | Oc1cc(-c2ccccc2)nc2ccccc12 [Example 114] | 255-257° ° C.
10 | O=C(Nc1ccccc1)Nc1ccccc1 [Example 49] | 246-248° ° C.
11 | c1ccc(Nc2ccc(-c3ccc(Nc4ccccc4)cc3)cc2)cc1 [Example 32] | 244-245° ° C.
12 | Cc1cc(C)c(C#N)c(=S)[nH]1 [Example 134] | 259-260° ° C.
13 | O=c1ccc2[nH]cc(C3=CCNCC3)c2[nH]1 [Example 66] | 248° ° C.
14 | [H]/N=C(\N/C(=N/[H])Nc1ccc(Cl)cc1)NC(C)C [Example 30] | 244-245° ° C.
15 | CC(C)c1nc2nc(N)nc(N)c2nc1C(C)C [Example 55] | 246° ° C.
16 | O=C1C2C(c3ccccc3)NC(c3ccccc3)C1C(c1ccccc1)NC2c1ccccc1 (stereo not shown) [Example 106] | 255-256° ° C.
17 | O=[N+]([O-])c1c2ccccc2c2ccc3cccc4ccc1c2c43 [Example 111] | 255-256° ° C.

Row | SMILES | Melting Point
18 | O=C1C(=O)c2cccnc2-c2ncccc21 [Example 126] | 258° ° C.
19 | Nc1nnc(-c2ccccc2)o1 [Example 9] | 241-243° ° C.
20 | Cn1c(=O)c(=O)n(C)c2ccccc21 [Example 120] | 256-258° ° C.
21 | COc1ccc2nc(S)[nH]c2c1 [Example 170] | 263-264° ° C.
22 | CC(=O)Oc1c(C)c(C)c2c(c1C)CCC(C)(CCN(C)C)O2 (stereo not shown) [Example 172] | 263-270° ° C.
23 | CN1C(=O)C(=NNC(N)=S)c2ccccc21 [Example 43] | 245° ° C.
24 | Cc1c(C)c2cccnc2c2ncccc12 [Example 195] | 265-266° ° C.
25 | Oc1nc2ccccc2nc1-c1ccccc1 [Example 64] | 247° ° C.
26 | O=C1CN(N=C/C=C/c2ccc([N+](=O)[O-])o2)C(=O)N1 [Example 151] | 261° ° C.
27 | OC1C2CC3CC(C2)CC1C3 (stereo not shown) [Example 140] | 260-265° ° C.
28 | C[C@]12CCC(=O)C[C@H]1CC[C@@H]1[C@@H]2CC[C@]2(C)[C@@H](c3ccc(=O)oc3)CC[C@]12O [Example 16] | 242-245° ° C.
29 | c1ccc(-c2c3ccccc3c(-c3ccccc3)c3ccccc23)cc1 [Example 54] | 246-248° ° C.
30 | COc1ccc(-c2cc(=O)c3ccc(O)cc3o2)cc1 [Example 196] | 265-267° ° C.
31 | NC(=O)c1cccc2nc3ccccc3nc12 [Example 42] | 245-246° ° C.
32 | COc1cccc2c1CCCC2N (stereo not shown) [Example 76] | 249-250° ° C.
33 | CCCC1C(=O)N2C(N(C)C)=Nc3ccc(C)cc3N2C1=O (stereo not shown) [Example 62] | 247-248° ° C.
34 | Cc1ccc2cc3ccc(C)cc3cc2c1 [Example 7] | 241° ° C.
